Tests used:
[1] = biological target: CASTOR1 homodimer-GATOR2 complex (Homo sapiens, UniProt Q8WTX7); type: binding
[2] = biological target: CASTOR1-CASTOR2 heterodimer-GATOR2 complex (Homo sapiens, UniProt Q8WTX7); type: binding

Chain of CASTOR1 homodimer-GATOR2 complex (Q8WTX7 whole entry): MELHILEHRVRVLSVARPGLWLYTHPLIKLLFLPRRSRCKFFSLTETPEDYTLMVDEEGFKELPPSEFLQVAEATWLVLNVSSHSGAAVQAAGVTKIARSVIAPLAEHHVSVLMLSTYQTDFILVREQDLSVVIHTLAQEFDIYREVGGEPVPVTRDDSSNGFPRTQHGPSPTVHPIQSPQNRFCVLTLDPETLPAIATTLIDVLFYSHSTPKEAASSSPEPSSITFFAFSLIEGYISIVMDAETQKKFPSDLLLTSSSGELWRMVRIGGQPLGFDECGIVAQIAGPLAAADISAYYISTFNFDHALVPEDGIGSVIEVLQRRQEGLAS
Chain of CASTOR1 homodimer-GATOR2 complex (Q9NXC5 whole entry partner): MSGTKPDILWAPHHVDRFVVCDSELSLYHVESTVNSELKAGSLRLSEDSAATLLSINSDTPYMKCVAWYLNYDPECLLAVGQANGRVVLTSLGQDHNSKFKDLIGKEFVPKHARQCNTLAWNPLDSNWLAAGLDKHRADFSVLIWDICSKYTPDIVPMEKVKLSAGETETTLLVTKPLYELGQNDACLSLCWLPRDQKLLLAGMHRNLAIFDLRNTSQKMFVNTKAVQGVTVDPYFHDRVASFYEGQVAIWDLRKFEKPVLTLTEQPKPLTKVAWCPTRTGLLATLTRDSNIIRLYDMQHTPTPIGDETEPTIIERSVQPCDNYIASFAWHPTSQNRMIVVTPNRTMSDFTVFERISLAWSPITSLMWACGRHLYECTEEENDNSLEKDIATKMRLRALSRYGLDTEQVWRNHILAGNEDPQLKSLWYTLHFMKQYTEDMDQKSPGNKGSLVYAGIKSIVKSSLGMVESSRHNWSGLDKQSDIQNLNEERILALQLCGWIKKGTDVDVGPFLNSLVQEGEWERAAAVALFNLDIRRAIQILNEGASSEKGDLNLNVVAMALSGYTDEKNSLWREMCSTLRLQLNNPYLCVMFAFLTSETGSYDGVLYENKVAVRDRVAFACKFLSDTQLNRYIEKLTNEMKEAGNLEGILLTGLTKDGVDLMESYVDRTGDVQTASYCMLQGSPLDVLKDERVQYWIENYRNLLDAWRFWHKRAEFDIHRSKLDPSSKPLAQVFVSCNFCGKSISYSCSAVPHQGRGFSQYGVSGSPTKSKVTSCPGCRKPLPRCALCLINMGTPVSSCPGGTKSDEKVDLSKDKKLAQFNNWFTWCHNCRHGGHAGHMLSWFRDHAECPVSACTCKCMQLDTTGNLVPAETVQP
Chain of CASTOR1 homodimer-GATOR2 complex (Q96S15 whole entry partner): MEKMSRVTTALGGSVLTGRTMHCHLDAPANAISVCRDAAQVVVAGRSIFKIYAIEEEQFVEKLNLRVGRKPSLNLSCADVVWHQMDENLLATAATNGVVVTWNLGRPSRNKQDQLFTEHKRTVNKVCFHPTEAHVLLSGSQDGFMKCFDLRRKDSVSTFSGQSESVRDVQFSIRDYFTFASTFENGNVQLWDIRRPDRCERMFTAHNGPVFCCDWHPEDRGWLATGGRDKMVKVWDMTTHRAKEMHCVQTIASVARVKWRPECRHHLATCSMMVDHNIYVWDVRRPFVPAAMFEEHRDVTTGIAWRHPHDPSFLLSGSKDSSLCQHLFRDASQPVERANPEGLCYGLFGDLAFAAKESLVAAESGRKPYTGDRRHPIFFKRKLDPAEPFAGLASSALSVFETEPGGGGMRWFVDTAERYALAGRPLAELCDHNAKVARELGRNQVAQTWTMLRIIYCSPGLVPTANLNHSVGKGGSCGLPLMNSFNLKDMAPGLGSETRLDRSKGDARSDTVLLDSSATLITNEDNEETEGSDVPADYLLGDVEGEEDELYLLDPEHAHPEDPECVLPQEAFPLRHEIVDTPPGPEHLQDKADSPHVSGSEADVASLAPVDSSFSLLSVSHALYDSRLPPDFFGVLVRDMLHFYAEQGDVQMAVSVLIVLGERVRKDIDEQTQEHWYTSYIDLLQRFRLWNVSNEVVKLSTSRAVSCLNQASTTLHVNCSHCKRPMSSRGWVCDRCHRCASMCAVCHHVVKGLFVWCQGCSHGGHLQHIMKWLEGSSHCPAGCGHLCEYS
Chain of CASTOR1 homodimer-GATOR2 complex (Q6PJI9 whole entry partner): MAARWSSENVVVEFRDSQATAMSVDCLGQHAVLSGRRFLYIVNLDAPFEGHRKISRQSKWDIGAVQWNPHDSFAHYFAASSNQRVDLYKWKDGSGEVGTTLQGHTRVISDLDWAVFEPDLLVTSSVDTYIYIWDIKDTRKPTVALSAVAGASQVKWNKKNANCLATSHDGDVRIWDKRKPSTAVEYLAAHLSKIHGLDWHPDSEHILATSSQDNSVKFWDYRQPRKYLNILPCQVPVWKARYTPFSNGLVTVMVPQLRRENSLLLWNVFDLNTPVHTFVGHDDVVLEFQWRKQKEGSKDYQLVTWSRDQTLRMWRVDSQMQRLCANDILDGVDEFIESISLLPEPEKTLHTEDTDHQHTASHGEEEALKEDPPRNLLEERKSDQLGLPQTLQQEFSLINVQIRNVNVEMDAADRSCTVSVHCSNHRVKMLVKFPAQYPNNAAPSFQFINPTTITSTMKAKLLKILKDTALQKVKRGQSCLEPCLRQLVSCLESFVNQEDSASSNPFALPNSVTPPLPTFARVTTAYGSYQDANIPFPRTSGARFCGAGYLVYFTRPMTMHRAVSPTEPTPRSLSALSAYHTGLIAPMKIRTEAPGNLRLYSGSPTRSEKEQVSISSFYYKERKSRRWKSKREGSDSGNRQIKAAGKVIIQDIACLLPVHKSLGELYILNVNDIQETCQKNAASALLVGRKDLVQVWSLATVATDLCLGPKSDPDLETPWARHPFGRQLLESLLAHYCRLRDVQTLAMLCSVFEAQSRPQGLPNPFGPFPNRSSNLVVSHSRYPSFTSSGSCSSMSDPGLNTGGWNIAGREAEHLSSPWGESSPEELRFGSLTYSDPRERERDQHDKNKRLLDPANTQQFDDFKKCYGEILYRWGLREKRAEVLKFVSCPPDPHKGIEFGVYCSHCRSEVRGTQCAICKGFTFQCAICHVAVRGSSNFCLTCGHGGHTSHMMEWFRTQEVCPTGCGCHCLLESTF
Chain of CASTOR1 homodimer-GATOR2 complex (Q96EE3 whole entry partner): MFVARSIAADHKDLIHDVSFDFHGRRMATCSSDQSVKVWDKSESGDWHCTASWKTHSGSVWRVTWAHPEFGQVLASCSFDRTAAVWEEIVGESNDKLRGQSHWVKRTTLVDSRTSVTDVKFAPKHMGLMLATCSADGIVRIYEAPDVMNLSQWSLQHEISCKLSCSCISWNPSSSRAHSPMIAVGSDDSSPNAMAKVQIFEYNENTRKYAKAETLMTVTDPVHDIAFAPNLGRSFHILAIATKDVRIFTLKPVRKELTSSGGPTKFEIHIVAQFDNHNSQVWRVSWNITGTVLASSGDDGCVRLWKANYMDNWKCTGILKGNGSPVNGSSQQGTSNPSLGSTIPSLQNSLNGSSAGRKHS
Chain of CASTOR1 homodimer-GATOR2 complex (P55735 2-322 partner): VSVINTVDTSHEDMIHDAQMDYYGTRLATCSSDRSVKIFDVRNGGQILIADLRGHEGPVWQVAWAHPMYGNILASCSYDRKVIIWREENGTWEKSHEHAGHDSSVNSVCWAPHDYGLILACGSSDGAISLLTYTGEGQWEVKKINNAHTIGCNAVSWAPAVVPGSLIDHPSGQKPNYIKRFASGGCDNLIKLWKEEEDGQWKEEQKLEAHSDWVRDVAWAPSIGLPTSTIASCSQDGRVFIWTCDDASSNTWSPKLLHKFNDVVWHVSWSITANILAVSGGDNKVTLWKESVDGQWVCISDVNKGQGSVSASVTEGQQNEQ

IC50 [1]: 20 to 40 µM
IC50 [2]: 20 to 40 µM
Structure (SMILES): N=C(N)NCCC[C@H](N)C(=O)O [arginine]
